{"source": "patent US20230404921A1", "about": "“LYOTROPIC LIQUID CRYSTALLINE PHASE PARTICLE” (priority 2020, published 2023)", "key": {"[1]": {"system": "Pseudomonas aeruginosa (ATCC 2835)", "assay": "MTS based cell viability assay", "settings": "for inhibition at 0.5 µg/mL: ATCC2835, drug conc 0.5 ug/ml; for inhibition at 2.5 µg/mL: ATCC2835, drug conc 2.5 ug/ml; for inhibition at 5 µg/mL: ATCC2835, drug conc 5 ug/ml; for inhibition at 7.5 µg/mL: ATCC2835, drug conc 7.5 ug/ml; for inhibition at 10 µg/mL: ATCC2835, drug conc 10 ug/ml; for inhibition at 15 µg/mL: ATCC2835, drug conc 15 ug/ml; for inhibition at 20 µg/mL: ATCC2835, drug conc 20 ug/ml; for inhibition at 25 µg/mL: ATCC2835, drug conc 25 ug/ml"}, "[2]": {"system": "fluconazole-resistant Cryptococcus neoformans", "assay": "Antimicrobial assay MIC-50 / MIC-90, 96 well plate", "type": "cell-based", "settings": "for MIC50: Cryptococcus neoformans"}, "[3]": {"system": "Candida albicans (ATCC10251)", "assay": "Fungal cell viability assay (MTS)"}, "[4]": {"settings": "Pseudomonas aeruginosa, read-out: Percentage inhibition"}}, "note": "Like-named read-outs stand apart in the source and are kept apart here."}
{"compound": "CC1(C)S[C@@H]2[C@H](NC(=O)[C@H](N)c3ccccc3)C(=O)N2[C@H]1C(=O)O", "note": "[Ampicillin]", "values": [{"measurement": "inhibition at 0.5 µg/mL", "setting": "[1]; [4]", "value": 39, "unit": "%"}, {"measurement": "inhibition at 2.5 µg/mL", "setting": "[1]; [4]", "value": 39.8, "unit": "%"}, {"measurement": "inhibition at 5 µg/mL", "setting": "[1]; [4]", "value": 41.9, "unit": "%"}, {"measurement": "inhibition at 7.5 µg/mL", "setting": "[1]; [4]", "value": 42.8, "unit": "%"}, {"measurement": "inhibition at 10 µg/mL", "setting": "[1]; [4]", "value": 46.4, "unit": "%"}, {"measurement": "inhibition at 15 µg/mL", "setting": "[1]; [4]", "value": 62.2, "unit": "%"}, {"measurement": "inhibition at 20 µg/mL", "setting": "[1]; [4]", "value": 69.9, "unit": "%"}, {"measurement": "inhibition at 25 µg/mL", "setting": "[1]; [4]", "value": 72.3, "unit": "%"}, {"measurement": "Percentage inhibition", "setting": "[1]; drug conc 0.5 ug/ml", "value": 38.64, "unit": "%"}]}
{"compound": "OC(Cn1cncn1)(Cn1cncn1)c1ccc(F)cc1F", "note": "[Fluconazole only, Fluconazole]", "values": [{"measurement": "MIC50", "setting": "[2]; pH 5.17", "value": 12.4, "unit": "µg/mL"}, {"measurement": "MIC50", "setting": "[2]; pH 7.08, read-out: MIC-50", "value": 12.2, "unit": "µg/mL"}, {"measurement": "MIC-90", "setting": "[2]; pH 5.17", "value": "fails to reach MIC-90"}]}
{"compound": "C[C@@H]1[C@H](O)[C@@H](C)/C=C/C=C/C=C/C=C/C=C/C=C/C=C/[C@H](O[C@@H]2O[C@H](C)[C@@H](O)[C@H](N)[C@@H]2O)C[C@@H]2O[C@](O)(C[C@@H](O)C[C@@H](O)[C@H](O)CC[C@@H](O)C[C@@H](O)CC(=O)O[C@H]1C)C[C@H](O)[C@H]2C(=O)O", "note": "[amphotericin, Amphotericin B]", "values": [{"measurement": "concentration required to achieve 98% inhibition", "setting": "[3]", "value": 10, "unit": "µg/mL"}]}
{"compound": "CO[C@@H]1[C@@H](OC(N)=O)[C@@H](O)[C@H](Oc2ccc3c(O)c(NC(=O)c4ccc(O)c(CC=C(C)C)c4)c(=O)oc3c2C)OC1(C)C", "note": "[novobiocin, Novobiocin]", "values": [{"measurement": "inhibition at 80 µg/mL", "setting": "[1]; Pseudomonas aeruginosa, ATCC2835, drug conc 80 ug/ml, read-out: Percentage inhibition", "value": 13, "unit": "%"}]}
{"compound": "CN[C@H](CC(C)C)C(=O)N[C@H]1C(=O)N[C@@H](CC(N)=O)C(=O)N[C@H]2C(=O)N[C@H]3C(=O)N[C@H](C(=O)N[C@H](C(=O)O)c4cc(O)cc(O)c4-c4cc3ccc4O)[C@H](O)c3ccc(c(Cl)c3)Oc3cc2cc(c3O[C@@H]2O[C@H](CO)[C@@H](O)[C@H](O)[C@H]2O[C@H]2C[C@](C)(N)[C@H](O)[C@H](C)O2)Oc2ccc(cc2Cl)[C@H]1O", "note": "[vancomycin, Vancomycin]", "values": [{"measurement": "inhibition at 0.5 µg/mL", "setting": "[1]; [4]", "value": 1.24, "unit": "%"}, {"measurement": "inhibition at 2.5 µg/mL", "setting": "[1]; [4]", "value": 9.83, "unit": "%"}, {"measurement": "inhibition at 5 µg/mL", "setting": "[1]; [4]", "value": 11.6, "unit": "%"}, {"measurement": "inhibition at 7.5 µg/mL", "setting": "[1]; [4]", "value": 14.2, "unit": "%"}, {"measurement": "inhibition at 10 µg/mL", "setting": "[1]; [4]", "value": 16.6, "unit": "%"}, {"measurement": "inhibition at 15 µg/mL", "setting": "[1]; [4]", "value": 17.6, "unit": "%"}, {"measurement": "inhibition at 20 µg/mL", "setting": "[1]; [4]", "value": 18, "unit": "%"}, {"measurement": "inhibition at 25 µg/mL", "setting": "[1]; [4]", "value": 18.4, "unit": "%"}]}
